In paper PMC11523249, “Expanding the antiprotozoal activity and the mechanism of action of n-butyl and iso-butyl ester of quinoxaline-1,4-di-N-oxide derivatives against Giardia lamblia, Trichomonas vaginalis, and Entamoeba histolytica. An in vitro and in silico approach” (Journal of Enzyme Inhibition and Medicinal Chemistry, 2024):
Like-named read-outs stand apart in the source and are kept apart here.

Key:
[1] = tested on: G. lamblia WB strain; assay: In vitro susceptibility assay, G. lamblia trophozoites; type: cell-based, Giardia lamblia; conditions: for Selectivity index, G. lamblia versus macrophages: CC50 J774.2 / IC50 G. lamblia
Description: (§1) G. lamblia WB strain, T. vaginalis GT3 strain, and E. histolytica strain HM1-IMSS were used in all experiments, all parasitic strains were obtained from the Unidad de Investigación Médica en Enfermedades Infecciosas y Parasitarias, Hospital de Pediatría, Instituto Mexicano del Seguro Social. In vitro susceptibility assays to determine IC50 values were performed using a method previously described. For this, 4 × 10^4 G. lamblia; 6 × 10^3 E. histolytica, or 4 × 10^4 T. vaginalis trophozoites were incubated for 48 h at 37 °C with different concentrations of quinoxaline derivatives T-137 to T-170 (0.5 ng/mL to 10 μg/mL) using dimethyl sulfoxide (DMSO) (0.05%) as solvent. Metronidazole and albendazole were used as positive controls, and parasites in the medium without drugs containing DMSO (0.05%) were included as negative controls. At the end of the incubation period, trophozoites were washed and subcultured for another 48 h in a fresh medium without drugs. Then, trophozoites were counted with a haemocytometer and the IC50 was calculated by Probit analysis. Experiments were carried out in triplicate and repeated at least twice.

[2] = tested on: T. vaginalis GT3 strain; assay: In vitro susceptibility assay, T. vaginalis trophozoites; type: cell-based, Trichomonas vaginalis
Description: as §1

[3] = tested on: E. histolytica strain HM1-IMSS; assay: In vitro susceptibility assay, E. histolytica trophozoites; type: cell-based, Entamoeba histolytica; conditions: for IC50: Entamoeba histolytica, 48 h, read-out: E. histolytica (IC50 nM), trophozoites, 48 h at 37 °C, subcultured 48 h, Probit analysis
Description: as §1

[4] = target: T1, recombinant GlTIM (Giardia intestinalis, UniProt P36186); assay: Inhibition of recombinant GlTIM enzyme activity; type: biochemical, Giardia lamblia
T1 construct: His-tag with TEV site (pET3a-HisTEV); made in house; host or cells: Escherichia coli BL21(DE3) pLys
T1 sequence (P36186 whole entry): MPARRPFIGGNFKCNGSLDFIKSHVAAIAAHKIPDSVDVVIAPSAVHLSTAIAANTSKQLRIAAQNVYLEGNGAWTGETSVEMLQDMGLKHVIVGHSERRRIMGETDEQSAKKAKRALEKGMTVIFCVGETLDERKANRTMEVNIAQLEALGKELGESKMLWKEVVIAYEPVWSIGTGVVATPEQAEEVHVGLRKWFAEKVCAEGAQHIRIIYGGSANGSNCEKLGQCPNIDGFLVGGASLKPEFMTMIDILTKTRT
Description: Escherichia coli BL21(DE3) pLys bacteria containing the plasmid pET3a-HisTEV with the gene coding for GlTIM wild type were grown in LB medium supplemented with 0.1 mg/mL ampicillin and incubated at 37 °C[40]. When the cultures reached Abs600 = 0.8, they were induced to express the recombinant enzyme using 0.4 mM IPTG and incubated overnight at 30 °C with shaking at 180 rpm. After induction and growth, the bacteria were collected by centrifugation (6500 rpm, 15 min) and suspended in 40 mL of lysis buffer (pH 8.0) containing 50 mM Tris, 50 mM NaCl, 5 mM β-mercaptoethanol, and 1 mM phenylmethylsulfonyl fluoride (PMSF). The bacterial suspension was disrupted by sonication and centrifuged at 9000 rpm for 1 h, at 4 °C. Protein purification was performed via IMAC using a Profinity Ni^2+ charged resin previously equilibrated with lysis buffer. The soluble protein fraction was mixed with the equilibrated Ni^2+ charged resin and incubated at room temperature with shaking for 30 min. Then, the column was washed with the same buffer (10 column volumes) to remove proteins without the His-tag sequence. The desired proteins were eluted with lysis buffer containing 200 mM imidazole and adjusted to pH 8.0. The purified protein was concentrated using Amicon ultrafiltration units. The purity of the enzymes was analysed via sodium dodecyl sulfate-polyacrylamide gel electrophoresis (16% SDS–PAGE gel) and stained with colloidal Coomassie Brilliant Blue. The enzyme concentration was spectrophotometrically determined (Spectrophotometer Cary 50, Varian Inc.) at 280 nm using the extinction coefficient ε280 = 26,600 M^−1 cm^−1.
(§2) For the inhibition assays, freshly purified recombinant GlTIM was incubated at 0.2 mg/mL for 2 h at 37 °C in the presence of 500 μM of each n-butyl and iso-butyl quinoxaline-7-carboxylate-1,4-di-N-oxide derivatives. After incubation, the samples were diluted, and 5 ng/mL were taken to measure their enzymatic activity. Enzyme activity was spectrophotometrically measured (Spectrophotometer Cary 50, Agilent Technologies, CA, USA) by following DHAP synthesis with a coupled system that followed the oxidation of NADH at 340 nm[41]. Results are expressed as the percent activity versus each compound at 500 μM, with the enzyme activity without any drug set as 100%. Additionally, GlTIM and HsTIM (separately) were incubated at 0.2 mg/mL for 2 h at 37 °C in the presence of 5, 10, 50, 150, 250, 350, and 500 μM of the T-167 derivative. Results are expressed as the percent activity versus T-167 concentration. All results represent the arithmetic mean of at least four independent experiments.

[5] = target: T2, recombinant E. histolytica thioredoxin reductase (EhTRXR) (Entamoeba histolytica, UniProt C4LW95); assay: Inhibition of EhTrxR DTNB reductase activity; type: biochemical; conditions: for inhibition at 100 µM: pH 7, read-out: EhTrxR inhibitory effect (disulphide reductase activity)
T2 construct: His-tag (pET28a) (N); made in house; host or cells: E. coli BL21 (DE3)
T2 sequence (C4LW95 1-314): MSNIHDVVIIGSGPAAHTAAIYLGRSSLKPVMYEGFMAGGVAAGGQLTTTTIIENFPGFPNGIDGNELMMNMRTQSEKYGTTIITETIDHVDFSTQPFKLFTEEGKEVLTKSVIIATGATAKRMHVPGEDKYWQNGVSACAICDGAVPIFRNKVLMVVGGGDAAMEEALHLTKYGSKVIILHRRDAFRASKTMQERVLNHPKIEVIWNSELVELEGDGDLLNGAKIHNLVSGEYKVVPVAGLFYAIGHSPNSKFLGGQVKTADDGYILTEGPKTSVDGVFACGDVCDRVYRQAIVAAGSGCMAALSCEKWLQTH
Description: Recombinant E. histolytica thioredoxin reductase (EhTRXR) was expressed in E. coli BL21 (DE3) as His-tag (N-terminal) recombinant proteins using pET28a vector, and it was purified using IMAC as previously described. 5,5′-Dithiobis(2-nitrobenzoic acid) (DTNB) reductase activity was measured by monitoring the production of thionitrobenzoate at 405 nm in a reaction mixture comprising 50 mM potassium phosphate, pH 7.0, 2 mM EDTA, 300 µM NADPH, 5 mM DTNB, and 0.1 µM EhTRXR. Activity was calculated using the molar extinction coefficient at 405 nm of 13.6 mM^−1cm^− 1 and considering that 1 mol of NADPH yields 2 mol of thionitrobenzoate. The enzyme assays were performed at 30 °C, in a final volume of 50 μL, and using a Multiskan Ascent one-channel vertical light path filter photometer (Thermo Electron Co.). All results represent the arithmetic mean of at three independent experiments.

[6] = tested on: G. lamblia trophozoites (WB strain); assay: Attachment and viability of G. lamblia trophozoites; type: cell-based, Giardia lamblia; conditions: for Concentration at which detachment and cytotoxicity took impact: 24 h of incubation at 37 °C; for Detachment of trophozoites: cultures incubated with compound
Description: Cytotoxicity of a drug is not the only important characteristic to cope with the pathogenesis of G. lamblia. It is known that the attachment of the trophozoites to the microvillus border of the small intestine is a crucial step for causing disease. […] T-143 and T-146 had the highest cytotoxic effect on giardia trophozoites (Figure 2(A,B), respectively). Detachment of trophozoites in cultures incubated with T-146 or T-161 was undetectable, with their impact directly through cytotoxicity (Figure 2(B)).

[7] = target: T1, recombinant GlTIM; design: method as in PMID 25223993; conditions: cited from earlier work
[8] = Cytotoxic evaluation, MTT colorimetric assay; type: cell-based; conditions: mouse, J774.2 macrophage cell line, murine macrophages J774.2, read-out: Cytotoxicity (Macrophages J774.2) (CC50)
Description: (§3) The murine macrophage cell line J774.2 was maintained in culture flasks with RPMI 1640 medium supplemented with 10% FBS, and 100 U/mL antibiotic-antifungal mixture (Gibco). Cells were incubated at 37 °C with 5% CO2 and humidity. Murine macrophage cell line J774.2 is maintained at Laboratorio de Estudios Epidemiológicos, Clínicos, Diseños Experimentales e Investigación, Facultad de Ciencias Químicas, Universidad Autónoma “Benito Juárez” de Oaxaca. Macrophages were washed and viability was assessed by the MTT colorimetric assay. In a 96-well microplate, 1 × 10^5 macrophages were added per well and a dose-response assay was performed. Compounds were evaluated using serial dilutions to determine half-maximal cytotoxic concentration (CC50) values in triplicate considering 0.2% DMSO as negative control.

[9] = tested on: murine macrophage cell line J774.2; assay: Cytotoxic evaluation, MTT colorimetric assay; type: cell-based; conditions: murine macrophages J774.2, read-out: Cytotoxicity (Macrophages J774.2) (CC50)
Description: as §3

[10] = target: T2, recombinant E. histolytica thioredoxin reductase (EhTRXR); design: method as in earlier work; conditions: ref 34 (Sóto-Sánchez et al. 2020); cited from earlier work
[11] = target: T3, human TIM (HsTIM) (Homo sapiens, UniProt P60174); assay: Inhibition of recombinant HsTIM enzyme activity; type: biochemical
T3 construct: His-tag with TEV site (pET3a-HisTEV); made in house; host or cells: E. coli BL21-CodonPlus (DE3)-RIL
T3 sequence (P60174 whole entry): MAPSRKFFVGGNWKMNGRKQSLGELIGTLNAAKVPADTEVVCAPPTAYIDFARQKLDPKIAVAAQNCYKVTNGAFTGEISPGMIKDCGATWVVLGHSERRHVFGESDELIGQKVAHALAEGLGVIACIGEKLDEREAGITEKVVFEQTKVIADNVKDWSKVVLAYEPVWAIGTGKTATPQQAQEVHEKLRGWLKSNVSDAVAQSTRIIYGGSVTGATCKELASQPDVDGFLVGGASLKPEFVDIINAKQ
Description: Expression of human TIM (HsTIM) was performed by using the E. coli BL21-CodonPlus (DE3)-RIL strain (Stratagene) containing the plasmid pET3a-HisTEV with the gene coding for HsTIM. Expression and purification steps were as above-mentioned for GlTIM. The enzyme concentration was spectrophotometrically determined (Spectrophotometer Cary 50, Varian Inc.) at 280 nm using the extinction coefficient ε280 = 33,460 M^−1 cm^−1.
as §2

[12] = Giardia duodenalis, 48 h, read-out: G. lamblia (IC50 nM), trophozoites, 48 h at 37 °C, subcultured 48 h, Probit analysis
[13] = Trichomonas vaginalis, GT3, 48 h, read-out: T. vaginalis (IC50 nM), trophozoites, 48 h at 37 °C, subcultured 48 h, Probit analysis
[14] = read-out: G. lamblia (IC50 nM), trophozoites, 48 h at 37 °C, subcultured 48 h, Probit analysis
[15] = read-out: T. vaginalis (IC50 nM), trophozoites, 48 h at 37 °C, subcultured 48 h, Probit analysis

Row | Compound | IC50 [1, 12] | IC50 [2, 13] | IC50 [3] | inhibition at 500 µM ([4]; 500 µM compound, 2 h at 37 °C) | inhibition at 100 µM [5] | Concentration at which detachment and cytotoxicity took impact [6] | IC50 [1, 14] | IC50 [2, 15] | CC50 [9] | also measured
1 | Cc1c(C(=O)Nc2ccc(Cl)cc2)[n+]([O-])c2cc(C(=O)OCC(C)C)ccc2[n+]1[O-] [Compound T-161] | 120 ± 1.16 nM | 137 ± 3.5 nM | 29.1 ± 3.5 nM | 19.7% | > 75% | 25 µM |  |  |  | IC50 ([5]; DTNB reductase activity, 30 °C, pH 7.0): 18 µM; Detachment of trophozoites [6]: undetectable
2 | COc1ccc2[nH]c([S+]([O-])Cc3ncc(C)c(OC)c3C)nc2c1 (stereo not drawn) [omeprazole] |  |  |  |  |  |  |  |  |  | Concentration attaining 70% inhibition of GlTIM [7]: about 300 µM; Concentration wholly inhibiting GlTIM activity [7]: 750 µM
3 | CC(=O)c1c(-c2ccccc2)[n+]([O-])c2ccc(C(=O)OCC(C)C)cc2[n+]1[O-] [Compound T-168] | 39.5 ± 2.63 nM | 150 ± 14.5 nM | 50 ± 2.63 nM |  |  |  |  |  |  | CC50 [8]: 28.5 ± 1.69 µM
4 | CC(=O)c1c(Nc2ccc(C)cc2C)[n+]([O-])c2ccc(C(=O)OCC(C)C)cc2[n+]1[O-] [Compound T-170] | 109 ± 3.55 nM | 130 ± 8.27 nM | 33.1 ± 2.36 nM |  |  |  |  |  |  | CC50 [8]: > 200 µM
5 | CCCCOC(=O)c1ccc2c(c1)[n+]([O-])c(C(=O)Nc1ccc(Cl)cc1)c(C)[n+]2[O-] [Compound T-143] | < 30 nM | < 90 nM | 15.1 ± 2.33 nM | 43.7% | 50 to 75% | 25 µM | 29.1 ± 5.83 nM | 45.2 ± 6.99 nM | 50.3 ± 2.8 µM | Selectivity index, G. lamblia versus macrophages [1]: 1726 fold; Selectivity index, T. vaginalis versus macrophages ([2]; CC50 J774.2 / IC50 T. vaginalis): 1112 fold; Selectivity index, E. histolytica versus macrophages ([3]; CC50 J774.2 / IC50 E. histolytica): 3321 fold
6 | CCOC(=O)c1c(C(F)(F)F)[n+]([O-])c2ccc(C(=O)OC(C)C)cc2[n+]1[O-] [Compound T-116] |  |  |  |  |  |  |  |  |  | IC50 [10]: 28 µM
7 | CCCCOC(=O)c1ccc2c(c1)[n+]([O-])c(C(=O)OCC)c(C(F)(F)F)[n+]2[O-] [Compound T-146] | < 30 nM | ~100 nM | 64.7 ± 3.73 nM | 37.3% | 50 to 75% | 25 µM | 26.1 ± 6.22 nM | 102 ± 2.49 nM | > 200 µM | Detachment of trophozoites [6]: undetectable
8 | CC(=O)c1c(C(F)(F)F)[n+]([O-])c2ccc(C(=O)OCC(C)C)cc2[n+]1[O-] [Compound T-167] | < 30 nM | < 90 nM | 64.5 ± 5.38 nM | 99.7% |  | 25 µM | 25.5 ± 1.34 nM | 90 ± 6.72 nM | 25.4 ± 0.0815 µM | Selectivity index, G. lamblia versus macrophages [1]: 994 fold; inhibition at 10 µM ([4]; 10 µM T-167, 2 h at 37 °C): > 20%; GlTIM inhibition ([4]; 500 µM compound, 2 h at 37 °C): wholly inhibited; GlTIM residual activity ([4]; 50 to 350 µM T-167): ~25%; Decrease of GlTIM enzyme activity ([4]; <10 to 50 µM T-167): above 70%; Effect on HsTIM enzyme activity ([11]; 10 µM T-167, 2 h at 37 °C): unaffected; HsTIM retained activity ([11]; 500 µM T-167, when GlTIM activity is completely depleted): more than 75%; HsTIM loss of activity ([11]; 50 to 350 µM T-167): no more than 10%
